Reference: patent US5576319A, “Pyrrolo-pyridine derivatives” (Merck, Sharp & Dohme Ltd., priority 1994, dated 1996)
Like-named read-outs stand apart in the source and are kept apart here.

Assays:
[1] = target: T1, human dopamine D2 receptor subtype (Homo sapiens, UniProt P14416); assay: [3H]-Spiperone binding, displacement from human dopamine D2 receptor subtype expressed in clonal cell lines
T1 construct: expressed in transfected cells

[2] = system: rats; assay: Sedation: spontaneous motor activity of rats in novel cages with photocells (number of cage crossings); assay type: in vivo; conditions: rat
Excerpt: Representative compounds according to the invention have been tested for their effects on spontaneous motor activity occasioned by placing rats in novel cages equipped with photocells in order to determine the number of cage crossings. This is an art-recognised model of the sedation potential of a given test compound.

[3] = system: rat; assay: Extrapyramidal disorders: apomorphine-induced stereotypy in the rat; assay type: in vivo
Excerpt: 2. Extrapyramidal Disorders
Representative compounds according to the invention have been tested for their effect on apomorphine-induced stereotypy in the rat. This is an art-recognised model of the potential to induce extrapyramidal side-effects.

[4] = target: T2, human dopamine D4 receptor subtype (Homo sapiens, UniProt P21917); assay: [3H]-Spiperone binding, displacement from human dopamine D4 receptor subtype expressed in clonal cell lines
T2 sequence (P21917 1-419): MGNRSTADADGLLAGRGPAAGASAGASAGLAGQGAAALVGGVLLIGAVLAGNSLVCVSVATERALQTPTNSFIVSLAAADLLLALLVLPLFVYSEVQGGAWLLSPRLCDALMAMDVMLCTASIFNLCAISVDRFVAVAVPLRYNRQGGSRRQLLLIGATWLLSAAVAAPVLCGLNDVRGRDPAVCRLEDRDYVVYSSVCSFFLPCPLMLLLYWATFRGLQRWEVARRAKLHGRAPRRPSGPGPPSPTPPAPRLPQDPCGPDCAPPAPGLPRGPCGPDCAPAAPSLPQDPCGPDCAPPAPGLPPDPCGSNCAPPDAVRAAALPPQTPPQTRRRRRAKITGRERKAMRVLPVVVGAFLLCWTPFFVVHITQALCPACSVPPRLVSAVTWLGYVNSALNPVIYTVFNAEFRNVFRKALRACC

T1 sequence (P14416 whole entry): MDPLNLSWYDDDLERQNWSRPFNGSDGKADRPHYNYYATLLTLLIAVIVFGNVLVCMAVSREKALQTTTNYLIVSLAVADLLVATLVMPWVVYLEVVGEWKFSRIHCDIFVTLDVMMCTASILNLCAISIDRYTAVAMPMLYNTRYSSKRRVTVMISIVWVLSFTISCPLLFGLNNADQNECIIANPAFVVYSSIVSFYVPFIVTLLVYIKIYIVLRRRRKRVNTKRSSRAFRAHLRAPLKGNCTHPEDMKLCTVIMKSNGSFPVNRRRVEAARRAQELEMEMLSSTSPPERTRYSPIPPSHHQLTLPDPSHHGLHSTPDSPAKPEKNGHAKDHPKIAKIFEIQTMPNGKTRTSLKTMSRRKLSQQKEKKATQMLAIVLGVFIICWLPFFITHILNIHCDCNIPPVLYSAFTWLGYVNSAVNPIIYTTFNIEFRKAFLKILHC

In the case of Clc1ccc(N2CCN(Cc3c[nH]c4ncccc34)CC2)cc1 [Example 5, 3-(4-[4-Chlorophenyl]piperazin-1-yl)methyl-1H-pyrrolo[2,3-b]pyridine], the Ki [1] is reported as 0.86 µM, the “sedation (spontaneous motor activity)” value ([2]; doses of up to 10-30 mg/kg) is reported as “no evidence for sedation” and the “potential to induce extrapyramidal side-effects (apomorphine-induced stereotypy)” value ([3]; doses up to 1.0 mg/kg) is reported as “no potential to induce the extrapyramidal side-effects”.

For COc1ccc(N2CCN(Cc3c[nH]c4ncccc34)CC2)cc1 [Example 2, 3-(4-[4-Methoxyphenyl]piperazin-1-yl)methyl-1H-pyrrolo[2,3-b]pyridine], the Ki ([4]; human D4, clonal cell line membranes, 0.2 nM [3H]-spiperone) was 0.0013 µM, the “D4 :D2 ratio” value ([4]; ratio of Ki values, selectivity for D4 over D2, 60 min) was “greater than 1150” and the Ki ([1]; human D2, clonal cell line membranes, 0.2 nM [3H]-spiperone, read-out: Ki value for the D2 subtype) was > 1.5 µM.

In the case of O=C(CCCN1CCC(O)(c2ccc(Cl)cc2)CC1)c1ccc(F)cc1 [haloperidol, reference compound], the “sedation (spontaneous motor activity)” value ([2]; dose of 1 mg/kg) is reported as “marked sedation” and the “potential to elicit extrapyramidal side-effects (apomorphine-induced stereotypy)” value ([3]; doses of 0.5 and 1.0 mg/kg) is reported as “significant potential to elicit extrapyramidal side-effects”.
